Measured values as given in patent US10933059B2, “Combination, application thereof and treatment method” (KANGPU BIOPHARMACEUTICALS, LTD., priority 2016, dated 2021).
Read-outs that look alike come from different tables or passages of the source.

Test system: Vcap cells
Assay: CTG cell proliferation assay on Vcap cells (compounds alone or in combination, 5 days)
Format: cell-based
Description: In vitro test of the inhibition effect of the compound in combination with androgen receptor pathway modulators on the prostate cancer cell proliferation.
Inhibition effect of the compounds such as B101, B102, B103, B104, B105, B106, C111 and the like, androgen receptor pathway modulators, hormone compounds, alone or in combination with each other on the prostate cancer cell proliferation were tested on Vcap cells (androgen receptor (+) prostate cancer cells) (ATCC, catalogue number CRL-2876). The specific experimental operation was as follows: 5×10^3 Vcap cells per well were inoculated into 96-well plates with transparent bottom and white wall (Corning, catalogue number CLS3903) containing the specific medium, and were cultured in a 37° C., 5% CO2 incubator for 24 hours. The tested compounds and the androgen receptor pathway modulators were prepared to a 150 mM stocking solution with DMSO (Sigma, catalogue number 276855), diluted with culture medium to the desired concentrations (the final concentration of DMSO is 0.2%), and then added to each well, 2 wells/concentration, followed by being incubated in a 37° C., 5% CO2 incubator for 5 days. The tested compounds were used alone or in combination with other androgen receptor pathway modulators and/or hormone compounds respectively. […] After that, 100 μl of CellTiter-Glo® cell viability assay reagent (Promega, catalogue number G7570) was added to each well and mixed well on a vibrator for 10 minutes to induce cell lysis. The 96-well plate was placed at room temperature for 10 minutes, so as to stabilize its luminescence signal. A white bottom membrane was pasted on the bottom of the plate and the plate was tested using EnSpire.

[1] = Homo sapiens, VCaP, 120 h, read-out: Survival rate of Vcap cells, tested compound alone, 0.1 μM
[2] = Homo sapiens, VCaP, 120 h, tested compound alone, 1 μM, read-out: Survival rate of Vcap cells
[3] = Homo sapiens, VCaP, 120 h, tested compound alone, 10 μM, read-out: Survival rate of Vcap cells
[4] = tested compound 0.1 μM in combination with 1 μM B101
[5] = tested compound 0.1 μM in combination with 1 μM B105
[6] = tested compound 1 μM in combination with 1 μM B101
[7] = tested compound 1 μM in combination with 1 μM B105
[8] = tested compound 10 μM in combination with 1 μM B101
[9] = tested compound 10 μM in combination with 1 μM B105
[10] = Homo sapiens, VCaP, 120 h, tested compound alone, 0.1 μM, read-out: Survival rate of Vcap cells
[11] = Homo sapiens, VCaP, 120 h, read-out: Survival rate of Vcap cells, tested compound alone, 10 μM
[12] = tested compound 0.1 μM in combination with 1 μM ARN-509
[13] = tested compound 0.1 μM in combination with 1 μM Enzalutamide
[14] = tested compound 1 μM in combination with 1 μM ARN-509
[15] = tested compound 1 μM in combination with 1 μM Enzalutamide
[16] = tested compound 10 μM in combination with 1 μM ARN-509
[17] = tested compound 10 μM in combination with 1 μM Enzalutamide

| Compound | viability at 1 µM [2] [%] | viability at 10 µM [3] [%] | Survival rate of Vcap cells [4] [%] | Survival rate of Vcap cells [5] [%] | Survival rate of Vcap cells [6] [%] | Survival rate of Vcap cells [7] [%] | Survival rate of Vcap cells [8] [%] | Survival rate of Vcap cells [9] [%] | viability at 0.1 µM [10] [%] | Survival rate of Vcap cells (tested compound alone, 1 μM) [%] | Survival rate of Vcap cells [12] [%] | Survival rate of Vcap cells [13] [%] | Survival rate of Vcap cells [14] [%] | Survival rate of Vcap cells [15] [%] | Survival rate of Vcap cells [16] [%] | Survival rate of Vcap cells [17] [%] | further results |
| --- | --- | --- | --- | --- | --- | --- | --- | --- | --- | --- | --- | --- | --- | --- | --- | --- | --- |
| CC(O)(CS(=O)(=O)c1ccc(F)cc1)C(=O)Nc1ccc(C#N)c(C(F)(F)F)c1 (stereo not drawn) [bicalutamide, reference compound] | 94 | 92 | 70.5 | 75.9 | 66.5 | 67.3 | 64.0 | 63.4 |  |  |  |  |  |  |  |  | viability at 0.1 µM [1]: 99.2% |
| CC(=O)O[C@]1(C(C)=O)CC[C@H]2[C@@H]3C=C(Cl)C4=CC(=O)[C@@H]5C[C@@H]5[C@]4(C)[C@H]3CC[C@@]21C [Cyproterone Acetate, reference compound] | 96 | 83.5 | 85.0 | 82.1 | 85.0 | 84.0 | 78.9 | 79.4 | 97.2 |  |  |  |  |  |  |  |  |
| CC(C)C(=O)Nc1ccc([N+](=O)[O-])c(C(F)(F)F)c1 [Flutamide, reference compound] | 96.7 | 73.1 | 80.4 | 76.5 | 65.1 | 64.6 | 42.8 | 43.8 | 105 |  |  |  |  |  |  |  |  |
| CC(O)c1cc(C(=O)N[C@@H](C)Cn2ccc(-c3ccc(C#N)c(Cl)c3)n2)[nH]n1 (stereo partly drawn) [ODM-201, reference compound] | 69 |  |  |  |  |  |  |  |  | 69.0 |  |  |  |  |  |  | viability at 0.1 µM [1]: 90.7%; viability at 10 µM [11]: 75.4% |
| CC(=O)O[C@]1(C(C)=O)CC[C@H]2[C@@H]3C=C(C)C4=CC(=O)CC[C@]4(C)[C@H]3CC[C@@]21C [Megestrol Acetate, reference compound] | 103 | 88.9 | 85.2 | 82.1 | 83.1 | 83.3 | 75.2 | 76.6 | 99.7 |  |  |  |  |  |  |  |  |
| [2H][C@@]1(N2Cc3c(N)cc(F)cc3C2=O)CCC(=O)NC1=O [B106] | 79 | 74.1 |  |  |  |  |  |  | 86.8 | 79.0 | 50.6 | 50.6 | 41.1 | 40.5 | 39.9 | 38.2 |  |
| [2H][C@]1(N2Cc3c(OCc4ccc(CN5CCOCC5)cc4F)cccc3C2=O)CCC(=O)NC1=O [C111] | 81 | 77 |  |  |  |  |  |  | 81.5 |  | 37.0 | 36.3 | 35.6 | 35.8 | 37.3 | 36.6 | inhibition at 0.05 µM (Homo sapiens, VCaP, 120 h, B105 or C111 0.05 μM alone, 5 days, read-out: Vcap cell proliferation inhibition rate): 19.6%; inhibition at 0.14 µM (Homo sapiens, VCaP, 120 h, B105 or C111 0.14 μM alone, 5 days, read-out: Vcap cell proliferation inhibition rate): 20.9%; inhibition at 1.23 µM (Homo sapiens, VCaP, 120 h, B105 or C111 1.23 μM alone, 5 days, read-out: Vcap cell proliferation inhibition rate): 23.4%; inhibition at 3.7 µM (Homo sapiens, VCaP, 120 h, B105 or C111 3.70 μM alone, 5 days, read-out: Vcap cell proliferation inhibition rate): 25.4%; inhibition at 11.11 µM (Homo sapiens, VCaP, 120 h, B105 or C111 11.11 μM alone, 5 days, read-out: Vcap cell proliferation inhibition rate): 28.8%; inhibition at 33.33 µM (Homo sapiens, VCaP, 120 h, B105 or C111 33.33 μM alone, 5 days, read-out: Vcap cell proliferation inhibition rate): 29.1%; inhibition at 100 µM (Homo sapiens, VCaP, 120 h, B105 or C111 100.00 μM alone, 5 days, read-out: Vcap cell proliferation inhibition rate): 31.6%; inhibition at 300 µM (Homo sapiens, VCaP, 120 h, B105 or C111 300.00 μM alone, 5 days, read-out: Vcap cell proliferation inhibition rate): 33.9%; Survival rate of Vcap cells (tested compound 0.1 μM in combination with 1 μM Abiraterone acetate): 65.5%; Survival rate of Vcap cells (tested compound 0.1 μM in combination with 1 μM Galeterone): 46.6%; Survival rate of Vcap cells (tested compound 0.1 μM in combination with 1 μM ODM-201): 45.9%; Survival rate of Vcap cells (tested compound 1 μM in combination with 1 μM Abiraterone acetate): 68.5%; Survival rate of Vcap cells (tested compound 1 μM in combination with 1 μM Galeterone): 47.0%; Survival rate of Vcap cells (tested compound 1 μM in combination with 1 μM ODM-201): 43.1%; Survival rate of Vcap cells (tested compound 10 μM in combination with 1 μM Abiraterone acetate): 66.1%; Survival rate of Vcap cells (tested compound 10 μM in combination with 1 μM Galeterone): 47.8%; Survival rate of Vcap cells (tested compound 10 μM in combination with 1 μM ODM-201): 37.2% |
| CC(=O)Nc1ccc(OC[C@](C)(O)C(=O)Nc2ccc([N+](=O)[O-])c(C(F)(F)F)c2)cc1 [Andarine, reference compound] |  |  | 69.8 | 71.1 | 65.5 | 64.6 | 53.8 | 53.5 |  | 82.7 |  |  |  |  |  |  | Survival rate of Vcap cells (tested compound alone, 0.1 μM): 85.6%; Survival rate of Vcap cells (tested compound alone, 10 μM): 69.4% |
| CC(=O)S[C@@H]1CC2=CC(=O)CC[C@]2(C)[C@H]2CC[C@@]3(C)[C@@H](CC[C@@]34CCC(=O)O4)[C@H]12 [Spironolactone, reference compound] | 91.3 | 72.5 | 85.3 | 87.2 | 77.3 | 79.6 | 65.9 | 64.5 | 100 |  |  |  |  |  |  |  |  |
| Nc1cc(F)cc2c1CN([C@@H]1CCC(=O)NC1=O)C2=O [B103] | 84.1 | 85.5 |  |  |  |  |  |  | 86.3 | 84.1 | 48.8 | 50.2 | 41.7 | 42.7 | 38.3 | 42.9 |  |
| [2H]C1(N2Cc3c(N)cc(F)cc3C2=O)CCC(=O)NC1=O (stereo not drawn) [B104] | 77.4 | 74 |  |  |  |  |  |  | 84.4 | 77.4 | 45.7 | 47.1 | 40.5 | 41.2 | 37.8 | 38.8 |  |
| C[C@]12C=CC(=O)C=C1CC[C@@H]1[C@@H]2C(=O)C[C@@]2(C)[C@H]1CC[C@]2(O)C(=O)CO [Prednisone, reference compound] | 99.7 | 99.4 | 84.0 | 87.5 | 76.9 | 80.6 | 75.3 | 79.7 | 99.1 |  |  |  |  |  |  |  |  |
| Nc1cc(F)cc2c1CN([C@H]1CCC(=O)NC1=O)C2=O [B102] | 80.9 | 78.4 |  |  |  |  |  |  | 84.7 | 80.9 | 47.2 | 46.3 | 40.2 | 41.1 | 38.3 | 40.1 |  |
| C[C@](O)(COc1ccc(C#N)cc1)C(=O)Nc1ccc(C#N)c(C(F)(F)F)c1 [MK-2866, reference compound] |  |  | 61.4 | 62.6 | 63.6 | 59.7 | 52.7 | 52.5 |  |  |  |  |  |  |  |  | viability at 0.1 µM [1]: 76.5%; viability at 1 µM (Homo sapiens, VCaP, 120 h, read-out: Survival rate of Vcap cells, tested compound alone, 1 μM): 77.4%; viability at 10 µM [11]: 69.4% |
| C[C@]12CC[C@H](O)C[C@@H]1CC[C@@H]1[C@@H]2CC[C@]2(C)C(=O)CC[C@@H]12 [Epiandrosterone, reference compound] |  |  |  | 71.5 | 71.1 | 64.6 | 79.8 | 77.4 |  |  |  |  |  |  |  |  |  |
